Experiments:
EGFR [1] = biological target: T1, EGFR (Homo sapiens, UniProt P00533, L858R/T790M); experiment: Cell Degradation 1: EGFR degradation in H1975 cells, HTRF assay; type: cell-based; settings: 16 h treatment, EGFR degradation by HTRF
T1 construct: endogenous in cells; host or cells: H1975
Method: After 16 h treatment, add 100 μl 1×lysis buffer to each well; seal the plate and incubate 1 hour at room temperature on a plate shaker; Once the cells are lysed, 16 μL of cell lysate are transferred to a PE 384-well HTRF detection plate; 4 μL of pre-mixed HTRF antibodies are added to each well; Cover the plate with a plate sealer, spin 1000 rpm for 1 min, Incubate overnight at room temperature; Read on BMG PheraStar with HTRF protocol (337 nm-665 nm-620 nm).
(§1) The IC50 (DC50) value of a compound can be obtained by fitting the following equation Y=Bottom+(TOP−Bottom)/(1+((IC50/X)^hillslope))
(§2) Wherein, X and Y are known values, and IC50, Hillslope, Top and Bottom are the parameters obtained by fitting with software. Y is the inhibition percentage (calculated from the equation), X is the concentration of the compound; IC50 is the concentration of the compound when the 50% inhibition is reached. The smaller the IC50 value is, the stronger the inhibitory ability of the compound is. Vice versa, the higher the IC50 value is, the weaker the ability the inhibitory ability of the compound is; Hillslope represents the slope of the fitted curve, generally around 1*; Bottom represents the minimum value of the curve obtained by data fitting, which is generally 0%±20%; Top represents the maximum value of the curve obtained by data fitting, which is generally 100%±20%. The experimental data were fitted by calculating and analyzing with Dotmatics data analysis software.

EGFR [2] = biological target: T2, EGFR (Homo sapiens, UniProt P00533, DEL746-750); experiment: Cell Degradation 2: EGFR degradation in HCC827 cells, HTRF assay; type: cell-based; settings: 16 h treatment, EGFR degradation by HTRF
T2 construct: endogenous in cells; host or cells: HCC827
Method: After 16 h treatment, add 100 μl 1×lysis buffer to each well; seal the plate and incubate 1 hour at room temperature on a plate shaker; Once the cells are lysed, 16 μl diluted (2 μL to 14 μl 1× lysisi buffer) cell lysate are transferred to a PE 384-well HTRF detection plate; 4 μL of pre-mixed HTRF antibodies are added to each well; Cover the plate with a plate sealer, spin 1000 rpm for 1 min, Incubate overnight at room temperature; Read on BMG PheraStar with HTRF protocol (337 nm-665 nm-620 nm).
as §1, §2

T1 sequence (P00533 25-1210 T790M/L858R): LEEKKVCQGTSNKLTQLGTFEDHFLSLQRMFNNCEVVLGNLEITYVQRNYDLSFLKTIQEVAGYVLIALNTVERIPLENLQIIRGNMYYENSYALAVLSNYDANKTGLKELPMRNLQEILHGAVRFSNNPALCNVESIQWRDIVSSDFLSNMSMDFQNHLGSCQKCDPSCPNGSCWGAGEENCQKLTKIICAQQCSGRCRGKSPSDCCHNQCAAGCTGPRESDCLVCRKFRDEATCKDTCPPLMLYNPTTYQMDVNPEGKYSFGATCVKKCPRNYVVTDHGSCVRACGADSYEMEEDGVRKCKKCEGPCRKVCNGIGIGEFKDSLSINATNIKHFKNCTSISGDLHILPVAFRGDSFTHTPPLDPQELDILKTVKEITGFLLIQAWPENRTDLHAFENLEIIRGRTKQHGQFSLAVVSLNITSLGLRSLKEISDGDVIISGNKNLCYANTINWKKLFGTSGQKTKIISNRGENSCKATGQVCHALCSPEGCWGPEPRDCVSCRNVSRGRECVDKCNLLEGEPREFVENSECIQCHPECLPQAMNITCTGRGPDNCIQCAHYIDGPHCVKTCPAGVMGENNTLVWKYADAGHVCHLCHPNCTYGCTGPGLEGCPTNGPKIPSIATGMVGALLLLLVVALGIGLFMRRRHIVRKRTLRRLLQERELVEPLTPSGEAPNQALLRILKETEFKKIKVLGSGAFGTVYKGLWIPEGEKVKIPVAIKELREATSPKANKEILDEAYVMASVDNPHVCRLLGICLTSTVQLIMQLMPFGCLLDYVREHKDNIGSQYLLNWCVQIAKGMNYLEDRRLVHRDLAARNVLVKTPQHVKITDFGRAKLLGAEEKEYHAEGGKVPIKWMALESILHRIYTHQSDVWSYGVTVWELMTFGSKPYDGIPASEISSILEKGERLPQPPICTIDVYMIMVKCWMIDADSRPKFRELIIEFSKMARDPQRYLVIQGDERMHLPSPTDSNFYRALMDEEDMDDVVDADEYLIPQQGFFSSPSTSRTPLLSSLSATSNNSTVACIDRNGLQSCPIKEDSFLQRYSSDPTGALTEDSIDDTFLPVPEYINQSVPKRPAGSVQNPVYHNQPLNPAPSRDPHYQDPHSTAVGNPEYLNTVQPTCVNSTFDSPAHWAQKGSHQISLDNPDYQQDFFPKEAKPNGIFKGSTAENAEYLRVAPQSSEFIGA
T2 sequence (P00533 with tags, fused parts or gaps DEL746-750): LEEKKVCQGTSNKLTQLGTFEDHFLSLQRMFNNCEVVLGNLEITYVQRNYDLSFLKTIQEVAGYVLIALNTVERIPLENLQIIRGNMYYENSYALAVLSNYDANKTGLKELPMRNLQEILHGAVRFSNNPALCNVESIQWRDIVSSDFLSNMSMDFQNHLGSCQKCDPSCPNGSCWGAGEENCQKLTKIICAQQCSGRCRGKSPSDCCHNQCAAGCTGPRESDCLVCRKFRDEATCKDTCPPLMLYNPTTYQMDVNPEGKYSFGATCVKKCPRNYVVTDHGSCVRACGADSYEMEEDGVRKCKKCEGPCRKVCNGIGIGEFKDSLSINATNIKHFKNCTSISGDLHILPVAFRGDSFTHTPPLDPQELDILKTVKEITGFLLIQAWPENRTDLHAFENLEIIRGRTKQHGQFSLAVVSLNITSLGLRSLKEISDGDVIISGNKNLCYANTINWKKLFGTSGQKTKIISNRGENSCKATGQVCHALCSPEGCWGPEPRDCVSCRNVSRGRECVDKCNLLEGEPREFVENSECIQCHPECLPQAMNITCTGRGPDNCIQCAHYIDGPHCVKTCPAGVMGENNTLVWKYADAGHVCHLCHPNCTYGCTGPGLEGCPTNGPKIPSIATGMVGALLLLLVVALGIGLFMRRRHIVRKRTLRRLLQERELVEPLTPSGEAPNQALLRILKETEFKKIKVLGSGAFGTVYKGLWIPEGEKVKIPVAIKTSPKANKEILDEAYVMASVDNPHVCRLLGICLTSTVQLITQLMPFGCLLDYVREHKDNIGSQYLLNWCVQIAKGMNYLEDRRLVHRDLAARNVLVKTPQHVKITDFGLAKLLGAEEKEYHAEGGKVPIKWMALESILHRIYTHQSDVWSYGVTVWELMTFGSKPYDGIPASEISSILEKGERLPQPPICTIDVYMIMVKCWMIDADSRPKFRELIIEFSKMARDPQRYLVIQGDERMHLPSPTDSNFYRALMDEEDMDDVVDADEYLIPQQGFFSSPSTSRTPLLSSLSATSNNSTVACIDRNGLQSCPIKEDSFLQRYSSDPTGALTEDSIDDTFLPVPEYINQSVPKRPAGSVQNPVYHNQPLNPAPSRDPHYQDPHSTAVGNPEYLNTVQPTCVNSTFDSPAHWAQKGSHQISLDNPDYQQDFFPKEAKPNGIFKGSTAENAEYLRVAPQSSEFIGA
T2 sequence (Q96SW2 whole entry partner): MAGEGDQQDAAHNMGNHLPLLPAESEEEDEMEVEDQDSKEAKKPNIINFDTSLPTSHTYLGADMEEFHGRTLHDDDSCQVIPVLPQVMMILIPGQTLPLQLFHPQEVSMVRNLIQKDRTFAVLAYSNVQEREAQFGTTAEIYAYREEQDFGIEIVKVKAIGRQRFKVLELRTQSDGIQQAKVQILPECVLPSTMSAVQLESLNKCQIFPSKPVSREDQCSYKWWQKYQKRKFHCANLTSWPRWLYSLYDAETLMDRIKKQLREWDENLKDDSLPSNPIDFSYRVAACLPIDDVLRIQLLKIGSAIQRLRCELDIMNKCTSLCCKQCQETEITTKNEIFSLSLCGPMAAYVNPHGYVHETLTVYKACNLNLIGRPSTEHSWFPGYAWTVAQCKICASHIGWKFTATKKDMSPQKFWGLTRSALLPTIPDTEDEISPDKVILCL

SMILES	DC50 (EGFR [1])	DC50 (EGFR [2])
CS(=O)(=O)N1CCc2cccc(Nc3nc(Nc4ccc(N5CCC(N6CCN(CCC7CCN(c8ccc(C9CCC(=O)NC9=O)c(C#N)c8)CC7)CC6)CC5)c(F)c4)nc4[nH]ccc34)c21 (centres unmarked) [Example 10, 2-(2,6-dioxopiperidin-3-yl)-5-(4-(2-(4-(1-(2-fluoro-4-((4-((1-(methylsulfonyl)indolin-7-yl)amino)-7H-pyrrolo[2,3-d]pyrimidin-2-yl)amino)phenyl)piperidin-4-yl)piperazin-1-yl)ethyl)piperidin-1-yl)benzonitrile]	9.3 nM	> 10000 nM
CS(=O)(=O)N1CCc2cccc(Nc3nc(Nc4ccc(N5CCC(N6CCN(C(=O)CCN7CCC(c8ccc(C9CCC(=O)NC9=O)cc8)CC7)CC6)CC5)c(F)c4)nc4[nH]ccc34)c21 (centres unmarked) [Example 11, 3-(4-(1-(3-(4-(1-(2-fluoro-4-((4-((1-(methylsulfonyl)indolin-7-yl)amino)-7H-pyrrolo[2,3-d]pyrimidin-2-yl)amino)phenyl)piperidin-4-yl)piperazin-1-yl)-3-oxopropyl)piperidin-4-yl)phenyl)piperidine-2,6-dione]	23.7 nM	123 nM
CS(=O)(=O)N1CCc2cccc(Nc3nc(Nc4ccc(N5CCC(N6CCN(C(=O)CC7CCN(c8ccc(C9CCC(=O)NC9=O)cc8)CC7)CC6)CC5)c(F)c4)nc4[nH]ccc34)c21 (centres unmarked) [Example 12, 3-(4-(4-(2-(4-(1-(2-fluoro-4-((4-((1-(methylsulfonyl)indolin-7-yl)amino)-7H-pyrrolo[2,3-d]pyrimidin-2-yl)amino)phenyl)piperidin-4-yl)piperazin-1-yl)-2-oxoethyl)piperidin-1-yl)phenyl)piperidine-2,6-dione]	12.4 nM	33.5 nM
CS(=O)(=O)N1CCc2cccc(Nc3nc(Nc4ccc(N5CCC(N6CCN(C(=O)C7CCN(CC8CCN(c9ccc%10c(c9)C(=O)N(C9CCC(=O)NC9=O)C%10=O)CC8)CC7)CC6)CC5)c(F)c4)nc4[nH]ccc34)c21 (centres unmarked) [Example 14, 2-(2,6-dioxopiperidin-3-yl)-5-(4-((4-(4-(1-(2-fluoro-4-((4-((1-(methylsulfonyl)indolin-7-yl)amino)-7H-pyrrolo[2,3-d]pyrimidin-2-yl)amino)phenyl)piperidin-4-yl)piperazine-1-carbonyl)piperidin-1-yl)methyl)piperidin-1-yl)isoindoline-1,3-dione]	27.1 nM	92.2 nM
CS(=O)(=O)N1CCc2cccc(Nc3nc(Nc4ccc(N5CCC(N6CCN(CC7CCN(c8ccc9c(c8)C(=O)N(C8CCC(=O)NC8=O)C9=O)CC7)CC6)CC5)c(F)c4)nc4[nH]ccc34)c21 (centres unmarked) [Example 16, 2-(2,6-dioxopiperidin-3-yl)-5-(4-((4-(1-(2-fluoro-4-((4-((1-(methylsulfonyl)indolin-7-yl)amino)-7H-pyrrolo[2,3-d]pyrimidin-2-yl)amino)phenyl)piperidin-4-yl)piperazin-1-yl)methyl)piperidin-1-yl)isoindoline-1,3-dione]	33.7 nM	32.6 nM
CS(=O)(=O)N1CCc2cccc(Nc3nc(Nc4ccc(N5CCC(N6CCN(CCC7CCN(c8ccc9c(c8)C(=O)N(C8CCC(=O)NC8=O)C9=O)CC7)CC6)CC5)c(F)c4)nc4[nH]ccc34)c21 (centres unmarked) [Example 17, 2-(2,6-dioxopiperidin-3-yl)-5-(4-(2-(4-(1-(2-fluoro-4-((4-((1-(methylsulfonyl)indolin-7-yl)amino)-7H-pyrrolo[2,3-d]pyrimidin-2-yl)amino)phenyl)piperidin-4-yl)piperazin-1-yl)ethyl)piperidin-1-yl)isoindoline-1,3-dione]	9.6 nM	30.8 nM

Second part, the compound after the results:

DC50 (EGFR [1])	DC50 (EGFR [2])	SMILES
9.9 nM	24.7 nM	CS(=O)(=O)N1CCc2cccc(Nc3nc(Nc4ccc(N5CCC(N6CCN(CCc7ccc(C8CCC(=O)NC8=O)cc7)CC6)CC5)c(F)c4)nc4[nH]ccc34)c21 (centres unmarked) [Example 1, 3-(4-(2-(4-(1-(2-fluoro-4-((4-((1-(methylsulfonyl)indolin-7-yl)amino)-7H-pyrrolo[2,3-d]pyrimidin-2-yl)amino)phenyl)piperidin-4-yl)piperazin-1-yl)ethyl)phenyl)piperidine-2,6-dione]
36.9 nM	33.4 nM	COc1cc(CCN2CCN(C3CCN(c4ccc(Nc5nc(Nc6cccc7c6N(S(C)(=O)=O)CC7)c6cc[nH]c6n5)cc4F)CC3)CC2)ccc1C1CCC(=O)NC1=O (centres unmarked) [Example 2, 3-(4-(2-(4-(1-(2-fluoro-4-((4-((1-(methylsulfonyl)indolin-7-yl)amino)-7H-pyrrolo[2,3-d]pyrimidin-2-yl)amino)phenyl)piperidin-4-yl)piperazin-1-yl)ethyl)-2-methoxyphenyl)piperidine-2,6-dione]
15.5 nM	> 10000 nM	CS(=O)(=O)N1CCc2cccc(Nc3nc(Nc4ccc(N5CCC(N6CCN(CCCOc7ccc(OC8CCC(=O)NC8=O)cc7)CC6)CC5)c(F)c4)nc4[nH]ccc34)c21 (centres unmarked) [Example 4, 3-(4-(3-(4-(1-(2-fluoro-4-((4-((1-(methylsulfonyl)indolin-7-yl)amino)-7H-pyrrolo[2,3-d]pyrimidin-2-yl)amino)phenyl)piperidin-4-yl)piperazin-1-yl)propoxy)phenoxy)piperidine-2,6-dione]
9 nM	62.6 nM	CS(=O)(=O)N1CCc2cccc(Nc3nc(Nc4ccc(N5CCC(N6CCN(CCOc7cccc(C8CCC(=O)NC8=O)c7)CC6)CC5)c(F)c4)nc4[nH]ccc34)c21 (centres unmarked) [Example 5, 3-(3-(2-(4-(1-(2-fluoro-4-((4-((1-(methylsulfonyl)indolin-7-yl)amino)-7H-pyrrolo[2,3-d]pyrimidin-2-yl)amino)phenyl)piperidin-4-yl)piperazin-1-yl)ethoxy)phenyl)piperidine-2,6-dione]
7.4 nM	29.3 nM	CN(CCN1CCN(C2CCN(c3ccc(Nc4nc(Nc5cccc6c5N(S(C)(=O)=O)CC6)c5cc[nH]c5n4)cc3F)CC2)CC1)c1cccc(C2CCC(=O)NC2=O)c1 (centres unmarked) [Example 6, 3-(3-((2-(4-(1-(2-fluoro-4-((4-((1-(methylsulfonyl)indolin-7-yl)amino)-7H-pyrrolo[2,3-d]pyrimidin-2-yl)amino)phenyl)piperidin-4-yl)piperazin-1-yl)ethyl)(methyl)amino)phenyl)piperidine-2,6-dione]
19.1 nM	16.7 nM	CS(=O)(=O)N1CCc2cccc(Nc3nc(Nc4ccc(N5CCC(N6CCN(CCC7CCN(c8ccc(C9CCC(=O)NC9=O)c(F)c8)CC7)CC6)CC5)c(F)c4)nc4[nH]ccc34)c21 (centres unmarked) [Example 9, 3-(2-fluoro-4-(4-(2-(4-(1-(2-fluoro-4-((4-((1-(methylsulfonyl)indolin-7-yl)amino)-7H-pyrrolo[2,3-d]pyrimidin-2-yl)amino)phenyl)piperidin-4-yl)piperazin-1-yl)ethyl)piperidin-1-yl)phenyl)piperidine-2,6-dione]
11.1 nM	29.3 nM	CS(=O)(=O)N1CCc2cccc(Nc3nc(Nc4ccc(N5CCC(N6CCN(CC[C@H]7CCN(c8ccc(C9CCC(=O)NC9=O)cc8)C7)CC6)CC5)c(F)c4)nc4[nH]ccc34)c21 (stereo partly drawn) [Example 13, 3-(4-((S)-3-(2-(4-(1-(2-fluoro-4-((4-((1-(methylsulfonyl)indolin-7-yl)amino)-7H-pyrrolo[2,3-d]pyrimidin-2-yl)amino)phenyl)piperidin-4-yl)piperazin-1-yl)ethyl)pyrrolidin-1-yl)phenyl)piperidine-2,6-dione]
